We go through two molecules from patent publication US20210260008A1, “COMBINATION THERAPY FOR TREATING CANCER” (THE JOHNS HOPKINS UNIVERSITY, priority 2018, published 2021).

Where two headings read alike, the source gives them in different places.

Data set [1] concerns immune cells in tumor associated ascites (tumor microenvironment). Kind of data set: Flow cytometry of immune cell populations in tumor associated ascites of VDID8 mice. The data set is classed as in vivo, mouse. The settings on record: for Percentage of M1 macrophages (MHCII+ CD206−) / total numbers of lymphocytes in ascites: week 5; for T cell, NK cell, and IFNγ+ lymphocyte populations: week 5 post tumor injection; for MHC II positive (MHCII Hi, M1-like) macrophages: compared to vehicle; for total numbers of lymphocytes in ascites: compared to vehicle / single agents. Here is the method: Ascites tissue harvest and processing. When ascites fluid is collected from the mice, the cells obtained represent the tumor microenvironment and can be further analyzed to help illustrate the mixed population of cells surrounding the tumor. Ascites was collected, filtered, incubated in ACK buffer (Quality Biological) to lyse red blood cells, and washed. The mononuclear cells collected were then cultured for four hours in RPMI (Corning) with 10% FBS in the presence of phorbol 12-myristate 13-acetate (PMA) and ionomycin to stimulate cells, and brefeldin A and monensin (Invitrogen 00-4975-93) to cause aggregation of secreted proteins inside the cell.
Flow cytometry. Cells were washed and blocked with FcR Blocking Reagent (Miltenyi Biotec 130-092-575) and stained for cell-surface markers including Live/Dead (eBioscience 65-0865-14), CD45 (BD Biosciences 563891), CD3 (BD Biosciences 560527), CD4 (BD Biosciences 563331), CD8 (BD Biosciences 563152), NK1.1 (BD Biosciences 562921), F4/80 (BioLegend 123113), CD11b (BioLegend 101222), MHC II (isotype control 400627; BioLegend 107619), CD206 (BioLegend 141708), CD11c (BD Biosciences 564079), Ly6C (BD Biosciences 562728), Ly6G (BD Biosciences 563005), CD80 (BD Biosciences 553769), and CD86 (BD Biosciences 558703). Cells were permeabilized and stained for intracellular IFNγ (isotype control 554686; BD Biosciences 554413). Flow cytometry acquisition was performed on an LSR II cytometer (BD Biosciences), and data were analyzed using FlowJo software version 10.2.
Flow sorting. Lysed and processed bulk ascites cells were blocked with FcR Blocking Reagent (Miltenyi Biotec 130-092-575) and stained for cell-surface markers including Live/Dead (eBioscience 65-0865-14), CD45 (BD Biosciences 563891), F4/80 (BioLegend 123113), CD11b (BioLegend 101222), MHC II (isotype control 400627; BioLegend 107619), CD206 (BioLegend 141708), and CD11c (BD Biosciences 564079). Prepared cells were suspended in PBS and sorted immediately on a BSL-2 FACSAria II. M1 macrophages were sorted on a gate as follows: CD45+ L/D− F4\80+ CD11b+ MHC II+ CD206− CD11c−. M2 macrophages were sorted on a gate as follows: CD45+ L/D− F4\80+ CD11b+ MHC II− CD206+ CD11c−.

The next data set deals with bulk ascites cells. Kind of data set: HPLC analysis of polyamine levels in bulk ascites cells from treated mice. The settings on record: bulk ascites cells from treated animals. The data set is classed as in vivo, mouse. Here is the method:
(§1) FIG. 6A-6B. DFMO treatment of VDID8 cells in vitro reduces putrescene and spermidine levels. FIG. 6A: VDID8 cells were cultured in 10% FBS RPMI+gentamicin for one week prior to beginning 10 day treatment. Cells were treated with 500 nM AZA/saline for 10 days and 5 mM DFMO/water for 3 days. AZA+DFMO cells were treated with 500 nM AZA for the first 7 days, and 500 nM AZA + 5 mM DFMO for the final 3 days of treatment. High-performance liquid chromatography (HPLC) analysis of polyamine levels in cultured, treated VDID8 cells are shown. n=3. FIG. 6B: Bulk ascites fluid was collected from individual mice treated with DFMO, AZA, or AZA+DFMO. Bulk ascites cells were lysed and washed and remaining cells were prepped for HPLC analysis of polyamine levels. n=4-10. All data were tested for a Gaussian distribution and found to be normal using Shapiro-Wilk test. Significance was determined using a one way ANOVA.
(§2) Polyamines. Polyamines were analyzed via high-performance liquid chromatography (HPLC) as previously described (36).

The subject of another data set is 2208L breast tumors. Kind of data set: 2208L breast tumor mouse model.
Another data set deals with VDID8 cells. Kind of data set: HPLC analysis of polyamine levels in cultured, treated VDID8 cells. Type of data set: cell-based, mouse. The settings on record: in vitro; 500 nM AZA 10 days, 5 mM DFMO 3 days. The procedure: as §1, §2
Data set [2] has as its system VEGF-β-Defensin ID8 (VDID8) syngeneic mouse ovarian surface epithelial (MOSE) cells. Kind of data set: VDID8 syngeneic ovarian cancer mouse model: tumor burden (ascites volume) and survival. The settings on record: for median survival / overall survival / tumor burden (ascites volume): VDID8 mice; for median survival / overall survival: AZA 0.5 mg/kg i.p., 2% DFMO in water; for tumor burden (ascites volume): treated vs vehicle; for tumor burden (ascites volume) compared with combination therapy: second ascites drain, week 5 post tumor injection.
Description: Mice were injected i.p. with 250,000 VEGF-DEFB ID8 MOSE cells (VDID8). 0.5 mg/kg of AZA was given i.p. 5 days a week, every other week. 2% DFMO was provided in water bottles. Mice were treated throughout the duration of the experiment. Upon 25-30% weight gain, ascites fluid was drained from mice and processed for analysis of the tumor microenvironment. FIG. 1B: Tumor burden, represented by ascites volume, 5 weeks post tumor injection. Data is from the second ascites drain procedure, the first was 4 weeks post tumor injection. Representative data (mean +/−SEM shown). n=10; four biological replicates. Data were tested for a Gaussian distribution using Shapiro-Wilk test and found not to be normal. Significance was determined using Kruskal Wallis test; statistical outliers removed using Peirce's criterion. FIG. 1C: Representative survival curve (median survival in days); n=10; four biological replicates. Significance determined using log-rank Mantel-Cox test.
Animals. Female C57BL/6NHsd wild-type (WT) mice (7-8 wk old) were purchased from Envigo International Holdings, Inc. (Indianapolis, Ind.). Mice were housed at the Johns Hopkins Kimmel Cancer Center Animal Resources Core and cared for in accordance with the policies of The Johns Hopkins University Animal Care and Use Committee and our approved animal protocol.
Syngeneic mouse model. 250,000 VEGF-β-Defensin ID8 (VDID8) syngeneic mouse ovarian surface epithelial (MOSE) cells were injected intraperitoneally into wild-type (WT) C57BL/6 mice.
Mice were treated with 0.5 mg/kg AZA/saline, Monday through Friday, every other week and continuous 2% DFMO in drinking water.
Mice were treated IP with AZA (0.5 mg/kg) or saline vehicle, DFMO (2% in water), or combination AZA and DFMO beginning three days post tumor injection (FIG. 1A).

For data set [3], the system named is LPS-stimulated macrophages. The settings on record: LPS-stimulated macrophages in vitro (ref. 48); cited from earlier work.
The conditions of data set [4]: cited from earlier work.

Excerpt for 2208L breast tumors: Significance determined using log-rank Mantel-Cox test.
Tumor size as measured once weekly in mice bearing 2208L breast tumor xenografts (week 6 post tumor implant).
Mature or activated dendritic cells in the tumor microenvironment of the 2208L breast cancer model, shown as a percentage of dendritic cells.

On to `NCCCC(N)(C(=O)O)C(F)F` (centres unmarked) [DFMO, 2-(difluoromethyl)-2,5-diaminopentanoic acid], for which, in data set [1] (ascites), the “Percentage of M1 macrophages (MHCII+ CD206−)” value is “increased”; the “T cell, NK cell, and IFNγ+ lymphocyte populations” value is reported as “significant increases”. Moreover, in data set [1], the “MHC II positive (MHCII Hi, M1-like) macrophages” value is “increased” and the “total numbers of lymphocytes in ascites” value is “significantly increased”. For the same molecule, the “polyamine levels (putrescine, spermidine, spermine)” value in the data set with bulk ascites cells is on record as “decreased (although not significantly)”. The tumor volume entry in the data set on 2208L breast tumors (measured once weekly, week 6 post tumor implant) is reported as “maintains low tumor volumes”. Moreover, in the data set with VDID8 cells, the “putrescine and spermidine levels” value is “significant decrease”. Further, in data set [2], the median survival result is reported as “approximately 44 days”, the overall survival result is given as “significantly increased survival”, the “tumor burden (ascites volume)” value is given as “decreased tumor burden” and the “tumor burden (ascites volume) compared with combination therapy” value is given as “higher tumor burden”. Further, the NO production entry in data set [3] is given as “potentiate NO production”.

Take `Nc1ncn([C@@H]2O[C@H](CO)[C@@H](O)[C@H]2O)c(=O)n1` [AZA, 4-amino-1-β-D-ribofuranozyl-s-triazin-2(1H)-one]: in data set [1] (ascites), the “total macrophage populations in the tumor microenvironment” value is “consistently decreased”; the “Percentage of M1 macrophages (MHCII+ CD206−)” value is given as “increased”; the “T cell, NK cell, and IFNγ+ lymphocyte populations” value was “significant increases”. For the same molecule, in data set [1], the “MHC II positive (MHCII Hi, M1-like) macrophages” value is given as “increased” and the “total numbers of lymphocytes in ascites” value is “significantly increased”. Besides, in the data set with bulk ascites cells, the “polyamine levels (putrescine, spermidine, spermine)” value was “No significant changes”. Further, the “mature or activated dendritic cells as a percentage of dendritic cells” value in the data set with 2208L breast tumors (tumor microenvironment of 2208L model) is “increases activation”. Also, the “tumor burden / tumor size” value in the data set on 2208L breast tumors (weeks 3 through 6 post tumor implant surgery) is recorded as “no impact on tumor size”. Further, the “putrescine and spermidine levels” value with VDID8 cells was “stimulatory effect”. The solubility entry in data set [4] (acetone, ethanol and methyl ketone) is reported as “insoluble”. Moreover, in data set [4] (dimethylsulfoxide (DMSO)), the solubility entry is recorded as “soluble”. Further, the solubility result in data set [4] (ethanol/water (50/50), propylene glycol and polyethylene glycol) is listed as “slightly soluble”. In data set [4] (water, water-saturated octanol, 5% dextrose in water, N-methyl-2-pyrrolidone, normal saline and 5% Tween 80 in water), the solubility result is on record as “sparingly soluble”. In addition, in data set [2], the median survival result was “approximately 44 days”, the overall survival result is given as “significantly increased survival”, the “tumor burden (ascites volume)” value is reported as “decreased tumor burden” and the “tumor burden (ascites volume) compared with combination therapy” value is “higher tumor burden”.
